Source: the supplement of paper PMC10307832

Tests used:
Test in all cases: relative viability (nuclei count vs DMSO), 5 days (fraction); higher = more cells survive
[1] = compound: CC1(COc2ccc3c(c2)ncn3-c2ccc3cccc(N4CCC(N)CC4)c3n2)COC1 [Crenolanib] + CS(=O)(=O)CCNCc1ccc(-c2ccc3ncnc(Nc4ccc(OCc5cccc(F)c5)c(Cl)c4)c3c2)o1 [Lapatinib] (partner 2 µM)
Outline: (§1)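 Lung cancer cell lines were seeded in 1536-well plates and dosed by pin tool the next day, with either a single drug or a fixed anchor-drug dose combined with five library-drug doses (not always all listed) spaced in √10 steps. Five days later, one step fixed the cells and stained their nuclei (final 0.05% Triton X-100, 1% formaldehyde, 1 ug/ml Hoechst), and nuclei were counted on 4× images. Relative viability is the nuclei count in treated wells divided by the count in vehicle wells, and each value is the median of duplicate plates.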

[2] = compound: O=C1NC(=O)[C@@H](c2cn3c4c(cccc24)CCC3)[C@@H]1c1c[nH]c2ccccc12 [Tivantinib] + CC(=O)c1c(C)c2cnc(Nc3ccc(N4CCNCC4)cn3)nc2n(C2CCCC2)c1=O [Palbociclib] (partner 0.5 µM)
Outline: as §1

[3] = compound: O=C1NC(=O)[C@@H](c2cn3c4c(cccc24)CCC3)[C@@H]1c1c[nH]c2ccccc12 [Tivantinib] + CCNC(=O)c1noc(-c2cc(C(C)C)c(O)cc2O)c1-c1ccc(CN2CCOCC2)cc1 [Luminespib] (partner 0.01 µM)
Outline: as §1

[4] = compound: O=C1NC(=O)[C@@H](c2cn3c4c(cccc24)CCC3)[C@@H]1c1c[nH]c2ccccc12 [Tivantinib] + N=C(N)NC(=N)NCCc1ccccc1 [Phenformin] (partner 250 µM)
Outline: as §1

Cell Line | relative viability ([1]; first compound 0.01 µM) | relative viability ([1]; first compound 0.03162 µM) | relative viability ([1]; first compound 0.1 µM) | relative viability ([1]; first compound 0.3162 µM) | relative viability ([1]; first compound 1 µM) | relative viability ([2]; first compound 0.01 µM) | relative viability ([2]; first compound 0.03162 µM) | relative viability ([2]; first compound 0.1 µM) | relative viability ([2]; first compound 0.3162 µM) | relative viability ([3]; first compound 0.01 µM) | relative viability ([3]; first compound 0.03162 µM) | relative viability ([3]; first compound 0.1 µM) | relative viability ([3]; first compound 0.3162 µM) | relative viability ([4]; first compound 0.01 µM) | relative viability ([4]; first compound 0.03162 µM) | relative viability ([4]; first compound 0.1 µM) | relative viability ([4]; first compound 0.3162 µM)
LOU-NH91 | 0.798 | 0.742 | 0.774 | 0.737 | 0.772 | 0.557 | 0.543 | 0.527 | 0.541 | 0.373 | 0.369 | 0.309 | 0.367 | 0.689 | 0.715 | 0.702 | 0.615
H3255 | 0.271 | 0.218 | 0.241 | 0.233 | 0.24 | 0.298 | 0.303 | 0.331 | – | 0.934 | 0.811 | 0.741 | – | 0.315 | 0.357 | 0.355 | –
NCI-H1975 | 0.844 | 0.968 | 0.774 | 0.891 | 0.702 | 0.55 | 0.536 | 0.536 | 0.37 | 0.197 | 0.307 | 0.17 | 0.218 | 0.398 | 0.421 | 0.403 | 0.357
NCI-H3122 | 1.02 | 0.976 | 1.01 | 1.09 | 1.21 | 0.208 | 0.216 | 0.164 | 0.186 | 0.0944 | 0.103 | 0.0763 | 0.0784 | 0.369 | 0.394 | 0.359 | 0.361
NCI-H2170 | 0.272 | 0.283 | 0.281 | 0.276 | 0.247 | 0.398 | 0.411 | 0.363 | – | 0.527 | 0.594 | 0.672 | – | 0.429 | 0.437 | 0.401 | –
NCI-H1395 | 1.02 | 1.06 | 0.915 | 0.942 | 0.971 | 0.708 | 0.625 | 0.632 | 0.527 | 0.82 | 0.662 | 0.557 | 0.403 | 0.468 | 0.513 | 0.45 | 0.437
LC-2-ad | 1 | 0.922 | 0.982 | 1.05 | 0.992 | 0.46 | 0.442 | 0.515 | 0.456 | 0.995 | 1.17 | 0.94 | 0.906 | 0.563 | 0.491 | 0.595 | 0.541
NCI-H358 | 0.468 | 0.461 | 0.44 | 0.45 | 0.312 | 0.172 | 0.16 | 0.151 | 0.0952 | 0.323 | 0.332 | 0.377 | 0.157 | 0.339 | 0.327 | 0.282 | 0.189
PC-14 | 0.311 | 0.294 | 0.335 | 0.335 | 0.324 | 0.594 | 0.578 | 0.499 | 0.536 | – | 0.152 | 0.152 | 0.15 | 0.516 | 0.454 | 0.611 | 0.341
CAL-12T | 0.73 | 0.618 | 0.661 | 0.703 | 0.821 | 0.409 | 0.345 | 0.347 | 0.185 | 0.506 | 0.756 | 0.43 | 0.259 | 0.639 | 0.529 | 0.582 | 0.259
